Measured values taken from the NIST ThermoML archive (doi:10.1016/j.jct.2006.08.008).

Key:
[1] = mn = molality of the nth substance listed, in mol/kg; settings: 350 kPa, Liquid
[2] = molar heat capacity at constant pressure; mn = molality of the nth substance listed, in mol/kg; settings: 350 kPa, Liquid

N[C@@H](CC(=O)O)C(=O)O [L-aminosuccinic acid] + O
Settings | mass density, m1 = 0.002 [kg/m3] | mass density, m1 = 0.004 [kg/m3] | mass density, m1 = 0.00601 [kg/m3] | mass density, m1 = 0.00801 [kg/m3] | mass density, m1 = 0.01 [kg/m3] | molar heat capacity at constant pressure, m1 = 0.002 [J/K/mol] | molar heat capacity at constant pressure, m1 = 0.004 [J/K/mol] | molar heat capacity at constant pressure, m1 = 0.00601 [J/K/mol] | molar heat capacity at constant pressure, m1 = 0.00801 [J/K/mol] | molar heat capacity at constant pressure, m1 = 0.01 [J/K/mol]
[1], 278.15 K | 1000.34 | 1000.29 | 1000.42 | 1000.62 | 1000.79 | – | – | – | – | –
[1], 283.15 K | 1000.09 | 1000.05 | 1000.2 | 1000.36 | 1000.48 | – | – | – | – | –
[1], 288.15 K | 999.47 | 999.41 | 999.59 | 999.76 | 999.84 | – | – | – | – | –
[1], 298.15 K | 997.39 | 997.34 | 997.51 | 997.69 | 997.73 | – | – | – | – | –
[1], 308.15 K | 994.35 | 994.31 | 994.5 | 994.64 | 994.7 | – | – | – | – | –
[1], 318.15 K | 990.53 | 990.51 | 990.66 | 990.76 | 990.87 | – | – | – | – | –
[1], 328.15 K | 985.99 | 986.02 | 986.15 | 986.25 | 986.33 | – | – | – | – | –
[1], 338.15 K | 980.85 | 980.89 | 981.01 | 981.13 | 981.18 | – | – | – | – | –
[1], 348.15 K | 975.14 | 975.19 | 975.26 | 975.41 | 975.51 | – | – | – | – | –
[1], 358.15 K | 968.93 | 968.98 | 969.03 | 969.18 | 969.3 | – | – | – | – | –
[1], 368.15 K | 962.17 | 962.28 | 962.3 | 962.49 | 962.59 | – | – | – | – | –
[2], 278.15 K | – | – | – | – | – | 75.71 | 75.71 | 75.71 | 75.71 | 75.71
[2], 283.15 K | – | – | – | – | – | 75.54 | 75.54 | 75.54 | 75.54 | 75.54
[2], 288.15 K | – | – | – | – | – | 75.42 | 75.42 | 75.43 | 75.43 | 75.42
[2], 293.15 K | – | – | – | – | – | 75.34 | 75.34 | 75.35 | 75.35 | 75.35
[2], 298.15 K | – | – | – | – | – | 75.29 | 75.29 | 75.3 | 75.3 | 75.3
[2], 303.15 K | – | – | – | – | – | 75.26 | 75.26 | 75.27 | 75.27 | 75.27
[2], 308.15 K | – | – | – | – | – | 75.25 | 75.25 | 75.25 | 75.26 | 75.26
[2], 313.15 K | – | – | – | – | – | 75.25 | 75.25 | 75.25 | 75.26 | 75.26
[2], 318.15 K | – | – | – | – | – | 75.26 | 75.26 | 75.27 | 75.27 | 75.27
[2], 323.15 K | – | – | – | – | – | 75.28 | 75.28 | 75.29 | 75.29 | 75.29
[2], 328.15 K | – | – | – | – | – | 75.31 | 75.32 | 75.32 | 75.33 | 75.33
[2], 333.15 K | – | – | – | – | – | 75.35 | 75.36 | 75.36 | 75.37 | 75.37
[2], 338.15 K | – | – | – | – | – | 75.4 | 75.41 | 75.41 | 75.41 | 75.42
[2], 343.15 K | – | – | – | – | – | 75.46 | 75.47 | 75.47 | 75.47 | 75.48
[2], 348.15 K | – | – | – | – | – | 75.52 | 75.53 | 75.53 | 75.54 | 75.54
[2], 353.15 K | – | – | – | – | – | 75.6 | 75.61 | 75.61 | 75.61 | 75.61
[2], 358.15 K | – | – | – | – | – | 75.68 | 75.69 | 75.69 | 75.69 | 75.69
[2], 363.15 K | – | – | – | – | – | 75.76 | 75.77 | 75.77 | 75.78 | 75.78
[2], 368.15 K | – | – | – | – | – | 75.86 | 75.87 | 75.87 | 75.87 | 75.87
[2], 373.15 K | – | – | – | – | – | 75.96 | 75.97 | 75.97 | 75.97 | 75.98
[2], 378.15 K | – | – | – | – | – | 76.07 | 76.08 | 76.08 | 76.09 | 76.09
[2], 383.15 K | – | – | – | – | – | 76.2 | 76.2 | 76.2 | 76.21 | 76.21
[2], 388.15 K | – | – | – | – | – | 76.33 | 76.34 | 76.33 | 76.34 | 76.34
[2], 393.15 K | – | – | – | – | – | 76.47 | 76.48 | 76.48 | 76.48 | 76.48
